Test results from article PMC11822212, “High-throughput screening identifies Aurora kinase B as a critical therapeutic target for Merkel cell carcinoma” (Nature Communications, 2025).
Where “and” joins values, the source holds several entries; their conditions need not be identical. Identical values can stand only once. Counter-ions that a name gives are not always drawn. Like-named read-outs stand apart in the source and are kept apart here.

Columns and labels:
[1] = system: MCC13 cells (VN-MCC); test: qHTS cell viability (CellTiter-Glo, 72 h; primary and follow-up small molecule screen); assay type: cell-based, human
[2] = system: MCC26 cells (VN-MCC); test: as above; assay type: cell-based, human
[3] = system: UISO cells (VN-MCC); test: as above; assay type: cell-based, human
[4] = system: WAGA cells (VP-MCC); test: as above; assay type: cell-based, human
[5] = system: MKL-1 cells (VP-MCC); test: as above; assay type: cell-based, human
[6] = system: MKL-2 cells (VP-MCC); test: as above; assay type: cell-based, human
[7] = system: HACAT cells; test: qHTS cell viability (CellTiter-Glo, 72 h; primary screen), control cell line; assay type: cell-based, human
[8] = system: HEK293T cells; test: as above; assay type: cell-based, human
[9] = system: NIH-3T3 cells; test: as above; assay type: cell-based, mouse
[10] = system: CRL-7250 cells; test: as above; assay type: cell-based
[11] = system: MCC cell lines (WAGA, MKL-1, MKL-2, MCC13, MCC26, UISO); test: qHTS cell viability, all six MCC cell lines as a group (mean AUC, MCC.avg); assay type: cell-based, human
[12] = system: VP-MCC cell lines (WAGA, MKL-1, MKL-2); test: qHTS cell viability, VP-MCC cell lines as a group (mean AUC, VP.MCC.avg); assay type: cell-based, human
[13] = system: VN-MCC cell lines (MCC13, MCC26, UISO); test: qHTS cell viability, VN-MCC cell lines as a group (mean AUC, VN.MCC.avg); assay type: cell-based, human
[14] = system: control cell lines (HACAT, HEK293T, CRL-7250, NIH-3T3); test: qHTS cell viability, control cell lines as a group (mean AUC, Control.avg); assay type: cell-based
[15] = system: six MCC cell lines and four control cell lines; test: qHTS cell viability, all 10 cell lines screened; assay type: cell-based
[16] = NPC library, qHTS dose-response AUC, MCC13
[17] = NPC library, qHTS dose-response AUC, UISO
[18] = NPC library, qHTS dose-response AUC, WAGA
[19] = NPC library, qHTS dose-response AUC, MKL1
[20] = NPC library, qHTS dose-response AUC, MKL2
[21] = NPC library, qHTS dose-response AUC, HACAT control
[22] = NPC library, qHTS dose-response AUC, NIH3T3 control
[23] = NPC library, qHTS dose-response AUC, CRL7250 control
[24] = NPC library, mean AUC of six MCC cell lines
[25] = NPC library, mean AUC of VP-MCC cell lines
[26] = NPC library, therapeutic window: Control avg AUC minus VP-MCC avg AUC
[27] = NPC library, mean AUC of VN-MCC cell lines
[28] = NPC library, therapeutic window: Control avg AUC minus VN-MCC avg AUC
[29] = NPC library, mean AUC of control cell lines
[30] = NPC library, therapeutic window: Control avg AUC minus MCC avg AUC

| Compound | MCC13_AUC [1] | MCC26_AUC [2] | UISO_AUC [3] | WAGA_AUC [4] | MKL1_AUC [5] | MKL2_AUC [6] | HACAT_AUC [7] | HEK293T_AUC [8] | NIH3T3_AUC [9] | CRL7250_AUC [10] | MCC_Avg_AUC [11] | Control-VP-MCC [12] | VP-MCC_Avg_AUC [12] | Control-VN-MCC [13] | VN-MCC_Avg_AUC [13] | Control_Avg_AUC [14] | Control-MCC [15] | MCC13_AUC [1, 16] | UISO_AUC [3, 17] | WAGA_AUC [4, 18] | other results |
| --- | --- | --- | --- | --- | --- | --- | --- | --- | --- | --- | --- | --- | --- | --- | --- | --- | --- | --- | --- | --- | --- |
| CCN(CC)CCc1c[nH]c2ccccc12.O=C(O)/C=C/C(=O)O [N,N-Diethyltryptamine fumarate] | 439.565 | 402.623 | 405.6 | 448.87 and 448.871 | 443.844 | 447.202 | 490.224 and 490.225 | 459.326 | 478.712 | 461.166 | 431.284 | 25.7182 | 446.639 | 56.4273 | 415.93 | 472.357 | 41.0728 |  |  |  |  |
| CC[N+](CC)(CC)CCOc1ccc(/C=C/c2ccccc2)cc1 [Stilonium iodide] | 466.903 | 402.111 | 334.732 | 348.194 | 307.411 | 312.305 | 372.384 | 375.842 | 427.937 | 355.764 | 361.943 | 60.3449 | 322.637 | -18.2672 | 401.249 | 382.981 | 21.0388 |  |  |  |  |
| CC(C)(C)CC(C)(C)c1ccc(OCCOCC[N+](C)(C)Cc2ccccc2)cc1 [Benzethonium chloride] | 470.477 | 468.704 | 402.239 | 367.918 | 344.624 | 335.827 | 436.332 | 369.337 | 461.959 | 423.584 | 398.298 | 73.3469 | 349.456 | -24.3368 | 447.14 | 422.803 | 24.505 |  |  |  | Area under the dose-response curve (AUC) MCC13 Replicate 1 [1]: 446.4; Area under the dose-response curve (AUC) MCC13 Replicate 2 [1]: 458.8; Area under the dose-response curve (AUC) MCC13 Replicate 3 [1]: 480.2; Area under the dose-response curve (AUC) MCC26 Replicate 1 [2]: 408.1; Area under the dose-response curve (AUC) MCC26 Replicate 2 [2]: 395.1; Area under the dose-response curve (AUC) MCC26 Replicate 3 [2]: 422.7; Area under the dose-response curve (AUC) UISO Replicate 1 [3]: 363.2; Area under the dose-response curve (AUC) UISO Replicate 2 [3]: 392.4; Area under the dose-response curve (AUC) UISO Replicate 3 [3]: 362.8; Area under the dose-response curve (AUC) WAGA Replicate 1 [4]: 389.4; Area under the dose-response curve (AUC) WAGA Replicate 2 [4]: 374.6; Area under the dose-response curve (AUC) WAGA Replicate 3 [4]: 382.0; Area under the dose-response curve (AUC) MKL-1 Replicate 1 [5]: 338.0; Area under the dose-response curve (AUC) MKL-1 Replicate 2 [5]: 346.5; Area under the dose-response curve (AUC) MKL-1 Replicate 3 [5]: 373.3; Area under the dose-response curve (AUC) MKL-2 Replicate 1 [6]: 357.2; Area under the dose-response curve (AUC) MKL-2 Replicate 2 [6]: 340.8; Area under the dose-response curve (AUC) MKL-2 Replicate 3 [6]: 365.0 |
| CCCCC(CC)CNC(=N)NC(=N)NCCCCCCNC(=N)NC(=N)NCC(CC)CCCC (stereo not shown) [Alexidine dihydrochloride] |  |  |  |  |  |  |  |  |  |  |  |  |  |  |  |  |  | 392.522 | 330.63 | 351.758 | MCC26_AUC ([2]; NPC library; qHTS dose-response AUC, MCC26): 401.146; MKL1_AUC [5, 19]: 329.916; MKL2_AUC [6, 20]: 344.79; HACAT_AUC [7, 21]: 392.766; HEK293T_AUC ([8]; NPC library; qHTS dose-response AUC, HEK293T control): 380.139; NIH3T3_AUC [9, 22]: 453.563; CRL7250_AUC [10, 23]: 401.378; MCC_Avg_AUC [11, 24]: 358.46; VP-MCC_Avg_AUC [12, 25]: 342.155; Control-VP-MCC [12, 26]: 64.8071; VN-MCC_Avg_AUC [13, 27]: 374.766; Control-VN-MCC [13, 28]: 32.1955; Control_Avg_AUC [14, 29]: 406.962; Control-MCC [15, 30]: 48.5013 |
| O=C(N/N=C/c1ccccc1O)c1ccncc1 [Salinazid] |  |  |  |  |  |  |  |  |  |  |  |  |  |  |  |  |  | 439.405 | 339.128 | 408.656 | MCC26_AUC ([2]; NPC library, qHTS dose-response AUC, MCC26): 445.789; MKL1_AUC [5, 19]: 355.467; MKL2_AUC [6, 20]: 340.216; HACAT_AUC [7, 21]: 455.974; HEK293T_AUC ([8]; NPC library, qHTS dose-response AUC, HEK293T control): 458.621; NIH3T3_AUC [9, 22]: 449.726; CRL7250_AUC [10, 23]: 476.052; MCC_Avg_AUC ([11]; NPC library, mean AUC of all 6 MCC cell lines): 388.11; MCC_Avg_AUC [11, 24]: 388.11; Control-VP-MCC ([12]; Control AUC minus VP-MCC AUC): 91.9801; VP-MCC_Avg_AUC [12, 25]: 368.113; Control-VP-MCC [12, 26]: 91.9801; Control-VN-MCC ([13]; Control AUC minus VN-MCC AUC): 51.9858; VN-MCC_Avg_AUC [13, 27]: 408.107; Control-VN-MCC [13, 28]: 51.9858; Control_Avg_AUC [14, 29]: 460.093; Control-MCC [15, 30]: 71.983 |
